Results as given in the RepoRT retention time repository.

Assay: Waters ACQUITY UPLC HSS T3, 0.4 mL/min; A: water + 0.1% formic acid; B: acetonitrile + 0.1% formic acid; gradient (min/%B) 0/5 1.5/5 12/95 14/95 14.01/100 17/100
Settings: stereoisomer not certain

| Compound | LC retention time |
| --- | --- |
| CC(=O)NC(CC(C)C)C(=O)NC(CC(C)C)C(=O)NC(C=O)CCCN=C(N)N (stereo not drawn) | 12.2 min |
| Nc1ncnc2c1ncn2C1OC(CO)C(O)C1OP(=O)(O)O (stereo not drawn) | 0.934 min |
| NCCCCC(=O)O | 1.02 min |
| CC(=O)OCC[N+](C)(C)C | 0.772 min |
| O=C(O)CC1CCC(=O)C1CC=CCCOC1OC(CO)C(O)C(O)C1O (stereo not drawn) | 0.755 min |
| CCCCCC(N)C(=O)O (stereo not drawn) | 0.772 min |
| CC(C)=CCCC(C)CCOC1OC(CO)C(O)C(O)C1OC1OC(CO)C(O)C(O)C1O (stereo not drawn) | 4.52 min |
| C=CCC=CCC=CCCCCCCCC(C(=O)OC)C(=O)C(=CC(=O)OC)OC (stereo not drawn) | 5.18 min |
| CC1(C)OC2(C)CC(O)C1CC2OC1OC(CO)C(O)C(O)C1O (stereo not drawn) | 3.99 min |
| C=C(CO)C1CCC(C)(O)C(OC2OC(CO)C(O)C(O)C2O)C1 (stereo not drawn) | 3.99 min |
| COc1cc2c(cc1OC)CN(C)CC2 | 4.98 min |
| CSCCC(N)C(=O)O (stereo not drawn) | 1.04 min |
| CC1(O)CCC(C(C)(C)OC2OC(CO)C(O)C(O)C2O)CC1O (stereo not drawn) | 5.08 min |
| CC(NC(=O)C(N)CC(=O)O)NC(=O)N(C)C(C)(C)C (stereo not drawn) | 0.829 min |
| CC(=O)OC(CC(=O)[O-])C[N+](C)(C)C (stereo not drawn) | 0.839 min |
| CCCCCC=CCC=CCC=CCCCCC(=O)OCC(COP(=O)(O)OCC(O)CO)OC(=O)CCCCCCCCCCCCCCC (stereo not drawn) | 13.9 min |
| CC1CCC2(NC1)OC1CC3C4CC=C5CC(OC6OC(CO)C(OC7OC(C)C(O)C(O)C7O)C(O)C6O)CCC5(C)C4CCC3(C)C1C2C (stereo not drawn) | 9.86 min |

Now from value to compound:

| LC retention time | Compound |
| --- | --- |
| 3.99 min | CC12CCC(O)(CC1OC1OC(CO)C(O)C(O)C1O)C(C)(C)O2 (stereo not drawn) |
| 1.11 min | O=C(OCC1OC(Oc2ccc(C=Cc3cc(O)cc(O)c3)cc2O)C(O)C(O)C1O)c1cc(O)c(O)c(O)c1 (stereo not drawn) |
| 4.99 min | CCC=CCC=CCC(O)C=CC=CC=CC(O)CCCC(=O)O (stereo not drawn) |
| 0.761 min | C[N+](C)(C)CCOP(=O)([O-])O |
| 6.31 min | CC1(C)C(O)CC(O)C23C(=O)OC4OCC(=CCC12)C43 (stereo not drawn) |
| 5.47 min | CCC(C)C(C(=O)NC(C(=O)NC1C(=O)NC(Cc2c[nH]c3ccccc23)C(=O)NCC(=O)c2ccc(cc2)OC1(C)C)C(C)C)N(C)C (stereo not drawn) |
| 0.934 min | Nc1[nH]c(=O)nc2c1ncn2C1CC(O)C(COP(=O)(O)O)O1 (stereo not drawn) |
| 9.09 min | CC=CC=CC=CC1=NCCCC1 |
| 10.4 min | CCCCCCCCCCCCCCCC(=O)OC1C(C)OC(OC2C(OCCCC)OC(CO)C(O)C2O)C(O)C1O (stereo not drawn) |
| 6.54 min | NCCCCCCCCCCCC(=O)O |
| 0.842 min | COc1ccc(COC2OC(CO)C(O)C(O)C2OS(=O)(=O)O)cc1 (stereo not drawn) |
| 0.851 min | COC1CCC(=O)N1 (stereo not drawn) |
| 0.934 min | Nc1nc2c(ncn2C2CC(O)C(COP(=O)(O)O)O2)c(=O)[nH]1 (stereo not drawn) |
| 11 min | CC1CCC2(C(=O)O)CCC3(C)C(=CCC4C5(C)CCC(OC(=O)c6ccccc6)C(C)(C)C5C(=O)CC43C)C2C1C (stereo not drawn) |
| 13.9 min | CCC=CCC=CCC=CCCCCCCCC(=O)OC(COC(=O)CCCCCCCCCCCCCCC)COP(=O)(O)OCC(O)CO (stereo not drawn) |
| 0.912 min | CC(=O)OCCC(N)C(=O)O (stereo not drawn) |
